Measurements published in US20090075974A1, “AGENT FOR PROPHYLAXIS AND TREATMENT OF PANCREATITIS” (UMN Pharma Inc., priority 2005, published 2009).
Where two headings read alike, the source gives them in different places.

Legend:
[1] = molecular target: T1, 5-HT2C receptor (Homo sapiens, UniProt P28335); conditions: literature values, cited from earlier work
T1 construct: expressed in transfected cells; host or cells: HEK-293 (membrane fractions)
T1 sequence (P28335 33-458): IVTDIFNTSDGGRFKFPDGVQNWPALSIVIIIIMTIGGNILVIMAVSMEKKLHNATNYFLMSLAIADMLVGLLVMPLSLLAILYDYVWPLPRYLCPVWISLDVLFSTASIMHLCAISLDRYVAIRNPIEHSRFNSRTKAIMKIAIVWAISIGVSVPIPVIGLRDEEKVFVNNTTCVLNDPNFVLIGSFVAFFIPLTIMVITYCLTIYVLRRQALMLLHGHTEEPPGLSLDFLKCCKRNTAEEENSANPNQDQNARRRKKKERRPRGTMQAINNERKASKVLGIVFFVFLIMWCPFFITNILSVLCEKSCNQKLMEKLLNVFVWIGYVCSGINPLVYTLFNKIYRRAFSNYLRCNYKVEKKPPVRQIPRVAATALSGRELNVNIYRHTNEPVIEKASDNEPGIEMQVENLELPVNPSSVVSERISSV

[2] = test system: mouse with cerulein-induced pancreatitis; assay: Cerulein-induced acute pancreatitis in mouse: amylase and lipase activity in plasma; type: in vivo; conditions: for inhibition rate of amylase activity: Example 2, FIG. 2, drug 3.2 mg/Kg; for effect on amylase in blood of mice administered with cerulein / effect on lipase in blood of mice administered with cerulein: Example 1, FIG. 1, under the dorsal skin 15 min before first cerulein, ketanserin 3.2 mg/Kg
Experimental: Receptor subtypes involved in the onset of pancreatitis were examined with the use of antagonists of 5-HT2A receptor, 5-HT2B receptor, and 5-HT2C receptor. A mouse having acute pancreatitis induced by excessive administration of cerulein was used as an animal model. This model is not affected by food consumption, which is different from CDE pancreatitis, and thus it is possible to obtain constant pathologic features and analyze data more accurately.
An aqueous solution of cerulein (0.05 mg/Kg) was administered to a five-week-old mouse every one hour five times by hypodermic injection. Each 5-HT2 antagonist suspended in a solvent (0.5% methylcellulose in saline) was administered under the dorsal skin 15 minutes before the first administration of cerulein. […] Further, only the solvent was administered to the control group (group administered with cerulein alone) under the dorsal skin. One hour after the final administration, blood was collected, and amylase activity and lipase activity in the plasma were determined.
Effects of various 5-HT2A antagonists on amylase activity and lipase activity in plasma of cerulein-induced pancreatic mice were examined. […] Then the amylase activity and the lipase activity in plasma were determined.
Effects of various 5-HT2 antagonists on amylase activity and lipase activity in plasma of cerulein-induced pancreatic mice were examined. […] Then the amylase activity and the lipase activity in plasma were determined.

[3] = molecular target: T2, 5-HT2B receptor (Homo sapiens, UniProt P41595); conditions: literature values, cited from earlier work
T2 construct: expressed in transfected cells; host or cells: CHO-K1 (membrane fractions)
T2 sequence (P41595 whole entry): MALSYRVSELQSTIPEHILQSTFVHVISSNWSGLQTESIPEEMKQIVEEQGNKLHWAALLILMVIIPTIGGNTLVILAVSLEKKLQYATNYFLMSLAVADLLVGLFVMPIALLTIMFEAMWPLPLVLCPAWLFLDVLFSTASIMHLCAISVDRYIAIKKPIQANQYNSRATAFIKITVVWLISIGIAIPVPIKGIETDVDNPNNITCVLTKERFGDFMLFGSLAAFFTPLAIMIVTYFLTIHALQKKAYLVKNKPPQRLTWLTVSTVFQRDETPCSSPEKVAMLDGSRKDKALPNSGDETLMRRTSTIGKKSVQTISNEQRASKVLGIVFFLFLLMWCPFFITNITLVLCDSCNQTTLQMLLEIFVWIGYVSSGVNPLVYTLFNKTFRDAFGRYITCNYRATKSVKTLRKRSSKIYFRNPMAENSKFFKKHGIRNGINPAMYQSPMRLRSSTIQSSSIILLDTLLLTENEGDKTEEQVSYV

[4] = plasma, cerulein-induced pancreatitis mouse
[5] = Bonhaus et al. (1995), second block of Table 1

SMILES	inhibition rate of amylase activity [2, 4]	effect on amylase in blood of mice administered with cerulein [2]	effect on lipase in blood of mice administered with cerulein [2]	other results
O=C1NCN(c2ccccc2)C12CCN(CCCOc1ccc(F)cc1)CC2 [AMI-193]	17%	–	–	5-HT2C pKi ± SEM ([1]; Knight et al. (2004)): 5.81 ± 0.16
OC(c1ccccc1)C1CCN(CCc2ccccc2)CC1 (stereo not drawn) [MDL11939]	−4%	–	–	–
CN1C[C@H](CNC(=O)OCc2ccccc2)C[C@@H]2c3cccc4c3c(cn4C)C[C@H]21 [Metergoline, metergoline]	–	–	–	inhibition rate of amylase ([2]; Example 3, FIG. 3, drug 3.2 mg/kg, plasma, cerulein-induced pancreatitis mouse): 30%
Cc1cc(NC(=O)Nc2ccc3c(ccn3C)c2)sn1 [SB204741]	–	didn't show any effect	didn't show any effect	5-HT2B pKi ± SEM [3, 5]: 7.1 ± 0.08; 5-HT2B pKi ± SEM ([3]; Knight et al. (2004)): 6.90 ± 0.27
Cc1cc2c(cc1Cl)N(C(=O)Nc1ccc(Oc3cccnc3C)nc1)CC2 [SB242084]	–	didn't show any effect	didn't show any effect	–
O=C(c1ccc(F)cc1)C1CCN(CCn2c(=O)[nH]c3ccccc3c2=O)CC1 [ketanserin]	37%	significantly decreased	significantly decreased	–
Cc1nc2n(c(=O)c1CCN1CCC(c3noc4cc(F)ccc34)CC1)CCCC2 [risperidone]	52%	–	–	–
O=C(CCCN1CCC2(CC1)C(=O)NCN2c1ccccc1)c1ccc(F)cc1 [spiperone]	–	–	–	5-HT2C pKi ± SEM [1, 5]: <6.00
